Results taken from PubChem BioAssay (NCI).
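Grown in 96-well plates, cells were treated for 48 hours with each compound at five concentrations. Insufficient inhibition: endpoint recorded as highest concentration tested. TGI: total growth inhibition.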

What was measured:
Assay in all cases: inhibition of tumour cell growth, NCI panel, 48 h
SK-MEL-28 melanoma = test system: SK-MEL-28 melanoma
MDA-MB-435 = test system: MDA-MB-435
ACHN renal = test system: ACHN renal
MCF7 breast = test system: MCF7 breast
A498 renal = test system: A498 renal
NCI/ADR-RES ovarian = test system: NCI/ADR-RES ovarian
UACC-257 melanoma = test system: UACC-257 melanoma
IGROV1 ovarian = test system: IGROV1 ovarian
SF-268 CNS = test system: SF-268 CNS
OVCAR-5 ovarian = test system: OVCAR-5 ovarian
SK-MEL-2 melanoma = test system: SK-MEL-2 melanoma
SN12C renal = test system: SN12C renal
HCT-116 colon = test system: HCT-116 colon
HCT-15 colon = test system: HCT-15 colon
SF-295 CNS = test system: SF-295 CNS
NCI-H23 lung = test system: NCI-H23 lung
HOP-62 NSCLC = test system: HOP-62 NSCLC
HOP-92 NSCLC = test system: HOP-92 NSCLC
COLO 205 colon = test system: COLO 205 colon
U251 CNS = test system: U251 CNS
OVCAR-8 ovarian = test system: OVCAR-8 ovarian
SNB-75 CNS = test system: SNB-75 CNS
NCI-H226 lung = test system: NCI-H226 lung
SF-539 CNS = test system: SF-539 CNS
LOX IMVI melanoma = test system: LOX IMVI melanoma
HCC-2998 colon = test system: HCC-2998 colon
KM12 colon = test system: KM12 colon
MALME-3M melanoma = test system: MALME-3M melanoma
OVCAR-4 ovarian = test system: OVCAR-4 ovarian
MDA-MB-231 breast = test system: MDA-MB-231 breast
CAKI-1 renal = test system: CAKI-1 renal
SK-OV-3 ovarian = test system: SK-OV-3 ovarian
EKVX NSCLC = test system: EKVX NSCLC
CCRF-CEM leukemia = test system: CCRF-CEM leukemia
HL-60(TB) leukemia = test system: HL-60(TB) leukemia
NCI-H460 lung = test system: NCI-H460 lung
SR leukemia = test system: SR leukemia
M14 melanoma = test system: M14 melanoma
786-0 renal = test system: 786-0 renal
MDA-N = test system: MDA-N
TK-10 renal = test system: TK-10 renal
HT29 colon = test system: HT29 colon
K-562 leukemia = test system: K-562 leukemia
OVCAR-3 ovarian = test system: OVCAR-3 ovarian
UACC-62 melanoma = test system: UACC-62 melanoma
NCI-H522 lung = test system: NCI-H522 lung
SW-620 colon = test system: SW-620 colon
A549 NSCLC = test system: A549 NSCLC
MOLT-4 leukemia = test system: MOLT-4 leukemia
UO-31 renal = test system: UO-31 renal
DU-145 prostate = test system: DU-145 prostate
RXF 393 renal = test system: RXF 393 renal
T-47D breast = test system: T-47D breast
PC-3 prostate = test system: PC-3 prostate
SNB-19 CNS = test system: SNB-19 CNS
HS 578T breast = test system: HS 578T breast
SK-MEL-5 melanoma = test system: SK-MEL-5 melanoma
BT-549 breast = test system: BT-549 breast
RPMI-8226 leukemia = test system: RPMI-8226 leukemia

O=c1[nH]c(=O)n(COCCOCc2ccccc2)cc1Nc1ccccc1
TGI (SK-MEL-28 melanoma): > 100 µM
TGI (MDA-MB-435): > 100 µM
TGI (ACHN renal): > 100 µM
TGI (MCF7 breast): > 100 µM
TGI (A498 renal): > 100 µM
TGI (NCI/ADR-RES ovarian): > 100 µM
TGI (UACC-257 melanoma): > 100 µM
TGI (IGROV1 ovarian): > 100 µM
TGI (SF-268 CNS): > 100 µM
TGI (OVCAR-5 ovarian): > 100 µM
TGI (SK-MEL-2 melanoma): > 100 µM
TGI (SN12C renal): > 100 µM
TGI (HCT-116 colon): > 100 µM
TGI (HCT-15 colon): > 100 µM
TGI (SF-295 CNS): > 100 µM
TGI (NCI-H23 lung): > 100 µM
TGI (HOP-62 NSCLC): > 100 µM
TGI (HOP-92 NSCLC): > 100 µM
TGI (COLO 205 colon): > 100 µM
TGI (U251 CNS): > 100 µM
TGI (OVCAR-8 ovarian): > 100 µM
TGI (SNB-75 CNS): > 100 µM
TGI (NCI-H226 lung): > 100 µM
TGI (SF-539 CNS): > 100 µM
TGI (LOX IMVI melanoma): > 100 µM
TGI (HCC-2998 colon): > 100 µM
TGI (KM12 colon): > 100 µM
TGI (MALME-3M melanoma): > 100 µM
TGI (OVCAR-4 ovarian): > 100 µM
TGI (MDA-MB-231 breast): > 100 µM
TGI (CAKI-1 renal): > 100 µM
TGI (SK-OV-3 ovarian): > 100 µM
TGI (EKVX NSCLC): > 100 µM
TGI (CCRF-CEM leukemia): > 100 µM
TGI (HL-60(TB) leukemia): > 100 µM
TGI (NCI-H460 lung): > 100 µM
TGI (SR leukemia): > 100 µM
TGI (M14 melanoma): > 100 µM
TGI (786-0 renal): > 100 µM
TGI (MDA-N): > 100 µM
TGI (TK-10 renal): > 100 µM
TGI (HT29 colon): > 100 µM
TGI (K-562 leukemia): > 100 µM
TGI (OVCAR-3 ovarian): > 100 µM
TGI (UACC-62 melanoma): > 100 µM
TGI (NCI-H522 lung): > 100 µM
TGI (SW-620 colon): > 100 µM
TGI (A549 NSCLC): > 100 µM
TGI (MOLT-4 leukemia): > 100 µM
TGI (UO-31 renal): > 100 µM
TGI (DU-145 prostate): > 100 µM
TGI (RXF 393 renal): > 100 µM
TGI (T-47D breast): > 100 µM
TGI (PC-3 prostate): > 100 µM
TGI (SNB-19 CNS): > 100 µM

Cc1cc(Cl)nc(Nc2nc3ccccc3[nH]2)n1
TGI (SK-MEL-28 melanoma): > 100 µM
TGI (MDA-MB-435): > 100 µM
TGI (HS 578T breast): > 100 µM
TGI (ACHN renal): > 100 µM
TGI (MCF7 breast): > 100 µM
TGI (A498 renal): > 100 µM
TGI (NCI/ADR-RES ovarian): > 100 µM
TGI (UACC-257 melanoma): > 100 µM
TGI (IGROV1 ovarian): > 100 µM
TGI (SF-268 CNS): > 100 µM
TGI (OVCAR-5 ovarian): > 100 µM
TGI (SK-MEL-2 melanoma): > 100 µM
TGI (SN12C renal): > 100 µM
TGI (SK-MEL-5 melanoma): > 100 µM
TGI (HCT-116 colon): > 100 µM
TGI (HCT-15 colon): > 100 µM
TGI (SF-295 CNS): > 100 µM
TGI (NCI-H23 lung): > 100 µM
TGI (HOP-62 NSCLC): > 100 µM
TGI (HOP-92 NSCLC): > 100 µM
TGI (COLO 205 colon): > 100 µM
TGI (U251 CNS): > 100 µM
TGI (OVCAR-8 ovarian): > 100 µM
TGI (SNB-75 CNS): > 100 µM
TGI (NCI-H226 lung): > 100 µM
TGI (SF-539 CNS): > 100 µM
TGI (LOX IMVI melanoma): > 100 µM
TGI (HCC-2998 colon): > 100 µM
TGI (MALME-3M melanoma): > 100 µM
TGI (OVCAR-4 ovarian): > 100 µM
TGI (MDA-MB-231 breast): > 100 µM
TGI (SK-OV-3 ovarian): > 100 µM
TGI (CCRF-CEM leukemia): > 100 µM
TGI (HL-60(TB) leukemia): > 100 µM
TGI (NCI-H460 lung): > 100 µM
TGI (SR leukemia): > 100 µM
TGI (BT-549 breast): > 100 µM
TGI (M14 melanoma): > 100 µM
TGI (786-0 renal): > 100 µM
TGI (MDA-N): > 100 µM
TGI (TK-10 renal): > 100 µM
TGI (HT29 colon): > 100 µM
TGI (K-562 leukemia): > 100 µM
TGI (OVCAR-3 ovarian): > 100 µM
TGI (UACC-62 melanoma): > 100 µM
TGI (NCI-H522 lung): 5.96 µM
TGI (SW-620 colon): > 100 µM
TGI (A549 NSCLC): > 100 µM
TGI (UO-31 renal): > 100 µM
TGI (DU-145 prostate): > 100 µM
TGI (RXF 393 renal): > 100 µM
TGI (PC-3 prostate): > 100 µM
TGI (SNB-19 CNS): > 100 µM

CC#CC(O)(C(=O)OC1CCC2CCC1N2C)C1CCCC1 (stereo unspecified)
TGI (SK-MEL-28 melanoma): > 100 µM
TGI (ACHN renal): > 10 µM
TGI (MCF7 breast): > 100 µM
TGI (NCI/ADR-RES ovarian): > 10 µM
TGI (UACC-257 melanoma): > 100 µM
TGI (IGROV1 ovarian): > 100 µM
TGI (SF-268 CNS): > 100 µM
TGI (OVCAR-5 ovarian): > 10 µM
TGI (SN12C renal): > 100 µM
TGI (SK-MEL-5 melanoma): > 100 µM
TGI (HCT-116 colon): > 100 µM
TGI (HCT-15 colon): > 100 µM
TGI (SF-295 CNS): > 100 µM
TGI (NCI-H23 lung): > 100 µM
TGI (HOP-62 NSCLC): > 100 µM
TGI (COLO 205 colon): > 100 µM
TGI (U251 CNS): > 10 µM
TGI (OVCAR-8 ovarian): > 100 µM
TGI (SNB-75 CNS): > 100 µM
TGI (NCI-H226 lung): > 100 µM
TGI (SF-539 CNS): > 100 µM
TGI (LOX IMVI melanoma): > 100 µM
TGI (HCC-2998 colon): > 100 µM
TGI (KM12 colon): > 100 µM
TGI (MALME-3M melanoma): > 100 µM
TGI (RPMI-8226 leukemia): > 100 µM
TGI (MDA-MB-231 breast): > 100 µM
TGI (CAKI-1 renal): > 100 µM
TGI (SK-OV-3 ovarian): > 100 µM
TGI (EKVX NSCLC): > 100 µM
TGI (SR leukemia): > 100 µM
TGI (M14 melanoma): > 100 µM
TGI (786-0 renal): > 100 µM
TGI (MDA-N): > 100 µM
TGI (TK-10 renal): > 100 µM
TGI (HT29 colon): > 100 µM
TGI (OVCAR-3 ovarian): > 100 µM
TGI (UACC-62 melanoma): > 100 µM
TGI (NCI-H522 lung): > 100 µM
TGI (SW-620 colon): > 100 µM
TGI (A549 NSCLC): > 100 µM
TGI (MOLT-4 leukemia): > 100 µM
TGI (UO-31 renal): > 100 µM
TGI (DU-145 prostate): > 100 µM
TGI (RXF 393 renal): > 100 µM
TGI (T-47D breast): > 100 µM
TGI (PC-3 prostate): > 100 µM
TGI (SNB-19 CNS): > 100 µM
